Consider seven molecules from patent publication US10100070B2, “Borate-based base generator, and base-reactive composition comprising such base generator” (FUJIFILM Wako Pure Chemical Corporation, priority 2014, dated 2018).

The nature of series [1]: Storage stability tests to a base-reactive compound. Format: physicochemical. As to conditions: 0.1 g in 2 g SR-NPG, 1 week at 40° C., viscosity change.
A short description of series [2]: Heat resistance tests (TG-DTA). The class given is physicochemical. As to conditions: 10 mg, heated from 30° C. to 500° C. at 10° C./min. An excerpt: Thus calculated temperature was used as decomposition initiation temperature to evaluate heat resistance of these compounds (base generators).
A short description of series [3]: Solubility tests to organic solvents and a base-reactive compound.
Procedure: The case where the compounds (base generators) were dissolved into less than 1 mL of the addition amount of the organic solvents or the base-reactive compound was evaluated as [++]; the case where the compounds (base generators) were dissolved into not less than 1 mL and less than 5 mL thereof was evaluated as [+]; the case where the compounds (base generators) were dissolved into not less than 5 mL and less than 10 mL thereof was evaluated as [−]; and the case where the compounds (base generators) were dissolved only into not less than 10 mL thereof was evaluated as [−−].

With “1,3-dimethyl-2-(N,N′,N″,N″-tetramethylguanidino)-4,5-dihydro-3H-imidazolium triphenyl(n-butyl)borate [Comp. Ex. 10]”, in series [1], the “Storage stability in epoxy” value was “−”.
As for “1,3-dimethyl-2-(N′,N′,N″,N″-tetramethylguanidino)-4,5-dihydro-3H-imidazolium triphenyl(n-butyl)borate [Example 4]”, the “Storage stability in epoxy” value in series [1] is given as “◯”. Further, in series [2], the “TG-DTA Decomposition Initiation Temperature (5% weight loss initiation temperature)” value stood at 280 °C.
The corresponding values for “1-cyclohexyl-3-(4-nitrophenyl)-4,4,5,5-tetramethylbiguanidium triphenyl(n-butyl)borate [Example 9]” are “◯” and 223 °C.
`CCCC[B-](c1ccccc1)(c1ccccc1)c1ccccc1.CN(C)C(=N[P+](N=C(N(C)C)N(C)C)(N=C(N(C)C)N(C)C)N=C(N(C)C)N(C)C)N(C)C` [Example 5, tetrakis(tetramethylguanidino)phosphonium triphenyl(n-butyl)borate]: the “Storage stability in epoxy” value in series [1] was “◯”. Besides, the “TG-DTA Decomposition Initiation Temperature (5% weight loss initiation temperature)” value in series [2] was determined as 318 °C.
The corresponding values for `CC(C)NC(=[N+]=C(N(C)C)N(C)C)NC(C)C.Cc1ccc(C#C[B-](c2ccccc2)(c2ccccc2)c2ccccc2)cc1` [Example 6, 1,2-diisopropyl-4,4,5,5-tetramethylbiguanidium p-tolylethynyl triphenylborate] are “◯” and 185 °C.
The corresponding values for “tetrakis(tetramethylguanidino)phosphonium p-tolylethynyl triphenylborate [Example 7]” are “◯” and 300 °C.
In the case of “tetrakis(tetramethylguanidino)phosphonium tetraphenylborate [Comp. Ex. 4]”, the “Storage stability in epoxy” value in series [1] was “−”. Besides, the “Solubility in EL” value in series [3] (0.1 g compound, ethyl lactate added gradually at room temperature, visual) is recorded as “−− (dissolved only into not less than 10 mL thereof)”. Moreover, the “Solubility in SR-NPG” value in series [3] (0.1 g compound, neopentylglycol diglycidyl ether added gradually at room temperature, visual) is given as “−− (dissolved only into not less than 10 mL thereof)”. Besides, in series [3] (0.1 g compound, propyleneglycol monomethylether acetate added gradually at room temperature, visual), the “Solubility in PGMEA” value is listed as “−− (dissolved only into not less than 10 mL thereof)”. Moreover, in series [3] (conclusion from Table 7), the “Solubility to organic solvents generally used in this field (in words)” value is given as “poor solubility” and the “Solubility to the base-reactive compound (in words)” value is given as “poor solubility”.
